Laboratory results as given in patent publication US5840690A, “Regulation of cell proliferation and differentation using peptides” (priority 1995, dated 1998).
Non-standard residues stand in square brackets, D forms with d. Residues, ends and D or L forms follow the SMILES beside them. Nle = CCCC[C@H](N)C(=O)O

Columns and labels:
[1] = test system: cultured human keratinocytes; assay: Keratinocyte culture: counts of total cells, basal cells and cornified envelopes; format: cell-based; details: for total number of cornified envelopes, percent of control: compound alone, FIGS. 6 and 7
Experimental: Keratinocytes were grown in culture as follows. NIH 3T3 cells were plated at 0.5×10^5 cells per 35-mm tissue-culture dish, and two days later were lethally irradiated with a cobalt-60 source (5000 rads). Keratinocytes were obtained from neonatal foreskin after overnight trypsinization at 4° C. and treatment with 0.02% EDTA. Keratinocytes were plated in 2 ml of serum-free medium per dish on the lethally irradiated 3T3 cells. Each experiment was performed on primary or secondary keratinocyte cultures obtained from different skin samples.
In addition, 1,25-(OH)2 D3 was tested, alone and in combination with PTH (7-34), and PTH (1-34) and PTH (7-34) were tested together.
Beginning at one week in culture, groups of triplicate plates of keratinocytes were incubated with the aforementioned compounds or vehicle alone. After one week of dosing, the medium was removed from each culture and centrifuged, and the pellet was resuspended for the counting of the desquamated floater cells. A hemacytometer was used to count the different cell types under a phase-contrast microscope. The attached cells were then trypsinized for 30-40 min with 0.1 EDTA and 0.1% trypsin and then neutralized with medium. The keratinocytes were pelleted and resuspended in a known volume of medium. Duplicate aliquots were taken for counting the basal (small, rounded) and squamous (larger, irregular-shaped, flattened) cells. The remaining cells were pelleted and treated with 10 mM Tris-HCl (pH 7.4) with 1% beta-mercaptoethanol and 1% sodium dodecyl sulfate (SDS) at room temperature for 10 min. Only cells with cornified envelopes were present after this treatment.
Each culture was thus evaluated for its total cell content, number of basal cells, and cornified envelopes, as described above.

[2] = test system: PTH-stimulated biologic responses; details: cited from earlier work
[3] = test system: tumor cells (for example, HL-60, U937, and M-1); details: tumor cells that possess a receptor for 1,25(OH)2 D3; cited from earlier work
[4] = test system: cultured human fibroblasts; details: cited from earlier work
[5] = test system: cultured human keratinocytes; details: cited from earlier work
psoriasis = details: provided either orally or topically; cited from earlier work
[6] = test system: wounds made through the skin with a 6 mm dermal biopsy punch; assay: In vivo skin punch assay; parameters: species or system Sprague-Dawley rats; details: rats, 2.0 μg topically in normal saline, immediately after biopsy and each day for 3 days, FIG. 8
Experimental: Male Sprague-Dawley rats were anesthetized by intraperitoneal injection of sodium pentobarbital, their dorsal skin shaved, and wounds made through the skin with a 6 mm dermal biopsy punch. Immediately after the biopsy, and each subsequent day for 3 days, groups of rats received topically 2.0 μg of human PTH (1-34) in normal saline or human PTH (7-34) in normal saline; a control group received normal saline without peptide. Four rats from each group were killed by asphyxiation in a chamber of carbon dioxide, and the extent of wound healing was evaluated as follows. Wounds were photographed with the wound surface perpendicular to the axis of the lens. After development of the film, wound images were projected on to paper at a fixed distance, traced with a pencil, and cut out with sharp scissors. The relative sizes of the wounds were assessed by weighing the cut-out paper tracings. Percent healing was calculated from the average decrease in wound area for each group.

[7] = test system: hair obtained from human subjects; assay: In vitro hair growth assay; format: cell-based
Text: Candidate peptides may be screened for their ability to stimulate hair growth as follows. […] Hair is sampled from 4 sites of the scalp (frontal, occipital, temporal, and nuchal) and the following body areas: beard, axilla, pubic, chest, forearm, and leg, using the method described by van Scott et al. (J. Invest. Derm. 29: 197, 1957). Immediately after plucking, the hairs are placed in chilled Krebs-Ringer phosphate buffer, pH 7.4. Growing (anagen) and resting (telogen) hairs are differentiated either by gross examination or under low microscopic magnification. Generally, 2 to 4 anagen hairs and 10 to 30 telogen hairs are incubated in duplicate, in 2 ml. centrifuge tubes, in a total volume of 1 ml of incubation mixture consisting of Krebs-Ringer phosphate buffer, pH 7.4, glucose (9 mM), and candidate peptide; control incubation mixture lacks peptide. Samples are incubated with shaking at 37° C. in an air atmosphere. […]
DNA content is determined by the method of Kissane and Robins (J. Biol. Chem. 233: 184, 1958) as modified by Santoianni and Ayala (J. Invest. Derm. 45: 99, 1965). […] Fluorescence is asssayed on an Aminco-Bowman Spectrofluorometer with the excitation wavelength set at 396 nm and the emission wavelength at […]. […] Routinely, standards containing 0.1, 0.4, 0.8, 1.2, 1.6, and 3.2 μg of DNA, and a blank are read with the samples.

Compound	total number of cornified envelopes, percent of control [1]	proliferation of keratinocytes (agonist) ([1]; concentration not given)	terminal differentiation of keratinocytes (agonist) ([1]; concentration not given)	total number of basal cells ([1]; peptide alone at 10^-10 and 10^-8 M, one week of dosing)	proliferation and terminal differentiation of cultured human keratinocytes (conclusion from the results) ([1]; peptide by itself)	PTH-stimulated biologic responses in vitro [2]	total number of cells and number of basal cells ([1]; 1,25(OH)2 D3 alone, one week of dosing, FIGS. 2-5)	differentiation of tumor cells [3]	proliferation of tumor cells [3]	proliferation of cultured human fibroblasts [4]	proliferation of cultured human keratinocytes [5]	terminal differentiation of keratinocytes [5]	value in the treatment of psoriasis (psoriasis)	wound healing (percent healing from decrease in wound area) [6]	hair growth in vitro [7]
CCCC[C@H](NC(=O)[C@H](CO)NC(=O)[C@H](CO)NC(=O)[C@H](CC(C)C)NC(=O)[C@H](Cc1c[nH]cn1)NC(=O)[C@H](CCCCN)NC(=O)CNC(=O)[C@H](CC(C)C)NC(=O)[C@H](CC(N)=O)NC(=O)[C@H](Cc1c[nH]cn1)NC(=O)[C@H](CCCC)NC(=O)[C@H](Cc1ccccc1)NC(=O)[C@H](CCC(N)=O)NC(=O)[C@@H](NC(=O)[C@H](CCC(=O)O)NC(=O)[C@@H](N)CO)[C@@H](C)CC)C(=O)N[C@@H](CCC(=O)O)C(=O)N[C@@H](CCCNC(=N)N)C(=O)N[C@H](C(=O)N[C@@H](CCC(=O)O)C(=O)N[C@@H](Cc1c[nH]c2ccccc12)C(=O)N[C@@H](CC(C)C)C(=O)N[C@@H](CCCNC(=N)N)C(=O)N[C@@H](CCCCN)C(=O)N[C@@H](CCCCN)C(=O)N[C@@H](CC(C)C)C(=O)N[C@@H](CCC(N)=O)C(=O)N[C@@H](CC(=O)O)C(=O)N[C@H](C(=O)N[C@@H](Cc1c[nH]cn1)C(=O)N[C@@H](CC(N)=O)C(=O)N[C@@H](Cc1ccc(O)cc1)C(N)=O)C(C)C)C(C)C [PTH (3-34), [Nle^8, Nle^18, Tyr^34] bovine (3-34) PTH amide] (H-SEIQF[Nle]HNLGKHLSS[Nle]ERVEWLRKKLQDVHNY-NH2)	increased, in a dose-dependent manner	inhibits proliferation	induces terminal differentiation	significantly decreased	have the same effect as PTH (1-34)	can be inhibited	–	–	–	–	–	–	–	–	–
C=C1/C(=C\C=C2/CCC[C@]3(C)[C@@H]([C@H](C)CCCC(C)(C)O)CC[C@@H]23)C[C@@H](O)C[C@@H]1O [1,25(OH)2 D3, 1,25-dihydroxyvitamin D3]	increased, in a dose-dependent manner	–	–	–	–	–	decreased in a dose-dependent manner	induces them to differentiate	inhibits their proliferation	inhibits the proliferation	inhibits the proliferation	induces keratinocytes to terminally differentiate	of value in the treatment of psoriasis	–	–
human PTH (7-34): human PTH (7-34), applied topically in normal saline in the skin punch assay; stimulates hair growth in vitro (LMHNLGKHLNSMERVEWLRKKLQDVHNF; Parathyroid hormone; UniProt P01270 38-65, looked up, fragment)	–	–	–	–	–	–	–	–	–	–	–	–	–	enhance wound healing	stimulates hair growth
